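Each compound was tested at five concentrations against cells in 96-well plates for 48 hours. Here, GI50 denotes the concentration required for 50% inhibition of growth.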 Activity calls are given as the source filed them. No stated cut-off is given here; in the data, active = GI50 up to about 1.1 µM and inactive = higher.
Tests used:
Assay in all cases: DTP human tumour cell line panel, 48 h
SNB-19 = tested on: SNB-19
SF-295 = tested on: SF-295
A549 = tested on: A549
RPMI-8226 = tested on: RPMI-8226
A498 = tested on: A498
T47D = tested on: T47D
IGROV-1 = tested on: IGROV-1
M14 = tested on: M14
OVCAR-8 = tested on: OVCAR-8
SW-620 = tested on: SW-620
SF-539 = tested on: SF-539
SK-OV-3 = tested on: SK-OV-3
SK-MEL-5 = tested on: SK-MEL-5
UACC-62 = tested on: UACC-62
K562 = tested on: K562
EKVX = tested on: EKVX
UO-31 = tested on: UO-31
KM12 = tested on: KM12
SN12C = tested on: SN12C
SNB-75 = tested on: SNB-75

Measured: GI50

C=CCCC1(CC(Sc2ccccc2)P(=O)(c2ccccc2)c2ccccc2)OCCO1 (stereo not drawn)
inactive: SNB-19 > 10 µM | SF-295 > 10 µM | A549 > 10 µM | RPMI-8226 > 10 µM | A498 > 10 µM | T47D > 10 µM | IGROV-1 > 10 µM | M14 > 10 µM | OVCAR-8 > 10 µM | SW-620 > 10 µM | SF-539 > 10 µM | SK-OV-3 > 10 µM | SK-MEL-5 > 10 µM | UACC-62 > 10 µM | K562 > 10 µM | EKVX > 10 µM | UO-31 > 10 µM | KM12 > 10 µM | SN12C > 10 µM

CC(/C=N/N=C1NCCCCN1)=N\N=C1NCCCCN1
inactive: SNB-19 > 100 µM | SF-295 47.2 µM | A549 > 100 µM | RPMI-8226 > 100 µM | T47D > 100 µM | IGROV-1 > 100 µM | M14 18.2 µM | OVCAR-8 > 100 µM | SW-620 > 100 µM | SF-539 > 100 µM | SK-OV-3 > 100 µM | SK-MEL-5 49.2 µM | UACC-62 > 100 µM | K562 37.1 µM | EKVX > 100 µM | UO-31 > 100 µM | KM12 > 100 µM | SNB-75 > 100 µM | SN12C > 100 µM

CC(C)(C)C1CCC2c3c([nH]c4ccccc34)C3C(=O)N(c4ccc5c(c4)C(=O)c4ccccc4C5=O)C(=O)C3C2C1 (stereo not drawn)
inactive: SNB-19 > 100 µM | SF-295 > 100 µM | A549 > 100 µM | RPMI-8226 > 100 µM | A498 > 100 µM | T47D > 100 µM | IGROV-1 > 100 µM | M14 > 100 µM | OVCAR-8 > 100 µM | SW-620 > 100 µM | SF-539 > 100 µM | SK-OV-3 > 100 µM | SK-MEL-5 > 100 µM | UACC-62 > 100 µM | K562 > 100 µM | EKVX > 100 µM | KM12 > 100 µM | SN12C > 100 µM

NCC(=O)Nc1ccccc1
inactive: SNB-19 > 100 µM | SF-295 > 100 µM | A549 > 100 µM | A498 > 100 µM | T47D > 100 µM | IGROV-1 > 100 µM | M14 > 100 µM | OVCAR-8 > 100 µM | SW-620 > 100 µM | SK-MEL-5 > 100 µM | UACC-62 > 100 µM | K562 60.5 µM | EKVX > 100 µM | UO-31 > 100 µM | KM12 > 100 µM | SNB-75 > 100 µM | SN12C > 100 µM

O=C(NNC(=S)NCc1ccccc1)c1csc(NC(=S)NC2CCCCC2)n1
inactive: SNB-19 76.6 µM | SF-295 42.1 µM | A549 37.2 µM | RPMI-8226 25.9 µM | A498 42 µM | T47D 30 µM | IGROV-1 31.3 µM | M14 32.6 µM | OVCAR-8 39.4 µM | SW-620 32.5 µM | SF-539 38 µM | SK-OV-3 50.6 µM | SK-MEL-5 13.8 µM | UACC-62 40.1 µM | EKVX 19.2 µM | UO-31 21.8 µM | KM12 49.9 µM | SN12C 34.4 µM

CC(C)Oc1ccc2c(c1)OCC1Cc3ccccc3OC21 (stereo not drawn)
inactive: SF-295 63.2 µM | A549 > 100 µM | RPMI-8226 52.8 µM | A498 > 100 µM | T47D 55.2 µM | IGROV-1 > 100 µM | M14 > 100 µM | OVCAR-8 > 100 µM | SW-620 > 100 µM | SF-539 > 100 µM | SK-OV-3 > 100 µM | SK-MEL-5 23 µM | UACC-62 > 100 µM | K562 88.1 µM | EKVX 75.9 µM | UO-31 > 100 µM | KM12 > 100 µM | SN12C > 100 µM

CCOC(=O)c1nc2cc(F)c(F)cc2nc1NCc1cc(OC)c(OC)c(OC)c1
inactive: SNB-19 42.5 µM | SF-295 > 100 µM | A549 > 100 µM | A498 > 100 µM | T47D > 100 µM | IGROV-1 > 100 µM | M14 > 100 µM | OVCAR-8 > 100 µM | SW-620 > 100 µM | SF-539 > 100 µM | SK-OV-3 > 100 µM | SK-MEL-5 76.7 µM | UACC-62 67.1 µM | EKVX > 100 µM | UO-31 63.7 µM | KM12 > 100 µM | SNB-75 16.5 µM | SN12C > 100 µM

CN(CCN1CCCC1)C1CCc2cc(Cl)c(Cl)cc2C1 (stereo not drawn)
inactive: SNB-19 19.7 µM | SF-295 15.7 µM | A549 16.6 µM | RPMI-8226 17.2 µM | A498 13.2 µM | T47D 6.37 µM | IGROV-1 15.6 µM | M14 15 µM | OVCAR-8 16.2 µM | SW-620 23.9 µM | SF-539 16.1 µM | SK-OV-3 17.5 µM | SK-MEL-5 11.1 µM | UACC-62 5.71 µM | K562 21.8 µM | EKVX 20.6 µM | UO-31 13.2 µM | KM12 20.3 µM | SN12C 15.5 µM

CC(=O)/C(=C\Nc1c(C)n(C)n(C)c1=O)C(=O)c1ccccc1
inactive: SNB-19 > 50 µM | SF-295 > 50 µM | A549 > 50 µM | RPMI-8226 > 50 µM | A498 > 50 µM | T47D > 50 µM | IGROV-1 > 50 µM | M14 > 50 µM | SW-620 > 50 µM | SF-539 > 50 µM | SK-OV-3 > 50 µM | SK-MEL-5 > 50 µM | UACC-62 > 50 µM | K562 > 50 µM | EKVX > 50 µM | UO-31 > 50 µM | SN12C > 50 µM

CCOC(=O)c1c(C)cc(=O)n2c1[nH]c1ccccc12
inactive: SNB-19 88.3 µM | SF-295 74.6 µM | A549 82.2 µM | A498 40.3 µM | T47D > 100 µM | IGROV-1 > 100 µM | M14 > 100 µM | OVCAR-8 > 100 µM | SW-620 > 100 µM | SF-539 31 µM | SK-OV-3 > 100 µM | SK-MEL-5 > 100 µM | UACC-62 > 100 µM | K562 50.9 µM | EKVX > 100 µM | UO-31 > 100 µM | SN12C 37.4 µM

CC1=C(C(=O)NNC(=O)Cc2ccccc2)CC(C(=O)NNC(=O)Cc2ccccc2)=C(C)N1
inactive: SNB-19 > 100 µM | SF-295 > 100 µM | A549 > 100 µM | A498 > 100 µM | T47D 54.8 µM | IGROV-1 > 100 µM | M14 > 100 µM | OVCAR-8 > 100 µM | SW-620 > 100 µM | SF-539 > 100 µM | SK-OV-3 > 100 µM | SK-MEL-5 > 100 µM | UACC-62 35.4 µM | EKVX > 100 µM | UO-31 > 100 µM | KM12 > 100 µM | SNB-75 > 100 µM | SN12C > 100 µM

Reference: ChEMBL document CHEMBL1201862, “PubChem BioAssay data set” (2004)
